Assay results as given in ChEMBL document CHEMBL1127250, “3,4-Di-o-()-camphanoyl-(+)-ciskhellactone and related compounds: A. new class of potent anti-HIV agents” (Bioorg Med Chem Lett, 1994).

What was measured:
H9 [1] = experiment: Effective concentration against HIV-1 replication in H9 lymphocyte cells was determined; assay type: functional, cell-based; settings: Homo sapiens
H9 [2] = experiment: Compound was tested for inhibitory activity against HIV-1 replication in H9 lymphocyte cells; assay type: functional, cell-based; settings: Homo sapiens
[3] = Therapeutic index was determined; settings: read-out: TI
H9 [4] = experiment: Effective concentration against HIV-1 replication in H9 lymphocyte cells was determined; Activity >6.4 but < 32; assay type: functional, cell-based; settings: Homo sapiens
H9 [5] = experiment: Compound was tested for inhibitory activity against HIV-1 replication in H9 lymphocyte cells; Activity >6.4 but < 32; assay type: functional, cell-based; settings: Homo sapiens
H9 [6] = experiment: Compound was tested for inhibitory activity against HIV-1 replication in H9 lymphocyte cells; Activity range >32 but <160; assay type: functional, cell-based; settings: Homo sapiens
[7] = Effective concentration against HIV-1 infection in peripheral blood mononuclear cells was determined; assay type: functional; settings: Homo sapiens
U-937 = experiment: Effective concentration against HIV-1 infection in U-937 cell line was determined; assay type: functional, cell-based; settings: Homo sapiens
[8] = Therapeutic index was determined; Value is >222 but < 1,111; settings: read-out: TI
[9] = Therapeutic index was determined; Value is >3,125 but < 15,625; settings: read-out: TI
[10] = Therapeutic index was determined; Value is >78049 but < 390244; settings: read-out: TI

Row | Structure (SMILES) | EC50 (H9 [1]) [µM] | IC50 (H9 [2]) [µM] | selectivity ratio [3] | further results
1 | Cc1cn([C@H]2C[C@H](N=[N+]=[N-])[C@@H](CO)O2)c(=O)[nH]c1=O [ZIDOVUDINE] | 0.15 |  |  | 
2 | CC1(C)Oc2ccc3ccc(=O)oc3c2[C@@H](OC(=O)C23CCC(C)(C(=O)O2)C3(C)C)[C@@H]1OC(=O)C12CCC(C)(C(=O)O1)C2(C)C (stereo not given in full) | 32 | > 32 | > 1 | 
3 | CC1(C)Oc2ccc3ccc(=O)oc3c2[C@H](OC(=O)C23CCC(C)(C(=O)O2)C3(C)C)[C@H]1OC(=O)C12CCC(C)(C(=O)O1)C2(C)C (stereo not given in full) |  |  | > 1 | EC50 (H9 [4]): < 32 µM; IC50 (H9 [5]): < 32 µM
4 | CC(=O)O[C@@H]1[C@H](OC(=O)CC(C)C)c2c(ccc3ccc(=O)oc23)OC1(C)C [SUKSDORFIN] | 1.3 | > 52 | > 40 | 
5 | CC1(C)Oc2ccc3ccc(=O)oc3c2[C@H](OC(=O)C23CCC(C)(C(=O)O2)C3(C)C)[C@@H]1OC(=O)C12CCC(C)(C(=O)O1)C2(C)C (stereo not given in full) | 51 | 1700 | > 33.3 | 
6 | CC1(C)Oc2ccc3ccc(=O)oc3c2[C@@H](OC(=O)C23CCC(C)(C(=O)O2)C3(C)C)[C@H]1OC(=O)C12CCC(C)(C(=O)O1)C2(C)C (stereo not given in full) | 0.00041 |  |  | IC50 (H9 [6]): < 160 µM; EC50 [7]: 0.029 µM; EC50 (U-937): 0.0021 µM; selectivity ratio [8]: > 222; selectivity ratio [9]: > 3120; selectivity ratio [10]: < 390000
